Experimental findings from ChEMBL document CHEMBL1140882, “Pestalofones A-E, bioactive cyclohexanone derivatives from the plant endophytic fungus Pestalotiopsis fici” (Bioorg Med Chem, 2009) are described below.

Data set [1] is described as follows: Cytotoxicity against human C8166 cells after 4 days by MTT assay. It is filed as cell-based. (In general: Formazan colour is commonly taken as a measure of viable cells.)
Data set [2] has as its system Human immunodeficiency virus 1. Nature of the data set: Antiviral activity against HIV1 replication in human C8166 cells by ELISA. It is filed as functional, organism-based. As to conditions: Human immunodeficiency virus 1, C8166.
For the next data set, the system named is Aspergillus fumigatus. Nature of the data set: Antimicrobial activity against Aspergillus fumigatus ATCC 10894. In kind it is functional, organism-based.

≈ marks a conversion by molar mass, not a printed value. Counter-ions that a name gives are not always drawn.

On to `CC(C)=C/C=C1\C[C@H](O)[C@@H]2O[C@]2(CC=C(C)C)C1=O` [PESTALOFONE A], for which the CC50 (in general, the concentration at which the toxic effect on the cells reaches its halfway point) at 96 h in data set [1] was greater than 200 µM. For the same compound, a half-maximal response in data set [2] (EC50) required 90.4 µM.
As to `OC(Cn1cncn1)(Cn1cncn1)c1ccc(F)cc1F` [FLUCONAZOLE], in the data set with Aspergillus fumigatus, the midpoint of inhibition, the IC50, lay at 7.35 µM and the MIC (commonly the least concentration at which growth counts as inhibited) came to 163 µM (≈ 50 µg/mL).
`C=C(C)/C=C1/C(=C2\C[C@H](O)[C@@H]3O[C@]3(CC=C(C)C)[C@@H]2O)C=C(C)C[C@@]12C[C@H](O)[C@@H]1O[C@]1(CC=C(C)C)C2=O` [PESTALOFONE B] yielded a CC50 at 96 h in data set [1] greater than 200 µM. Further, the response in data set [2] was half-maximal at 64 µM (EC50).
As to `C=C(C)/C=C1/C(=C2\C[C@H](O)[C@@H]3O[C@]3(CC=C(C)C)C2=O)C=C(C)C[C@@]12C[C@H](O)[C@@H]1O[C@]1(CC=C(C)C)C2=O` [PESTALOFONE C], in the data set with Aspergillus fumigatus, the IC50 – broadly, the concentration that inhibits the measured activity by half – came to 1.1 µM and 35.3 µM (≈ 18.4 µg/mL) was the least that counted as inhibitory (MIC).
Take `CC(C)(C)NC(=O)[C@@H]1CN(Cc2cccnc2)CCN1C[C@@H](O)C[C@@H](Cc1ccccc1)C(=O)N[C@H]1c2ccccc2C[C@H]1O` [INDINAVIR SULFATE]: in data set [2], the EC50 (as a rule, the concentration that produces a half-maximal response) came out at 0.00881 µM.
In the data set with Aspergillus fumigatus, `COC(=O)c1cc(OC)cc2oc3c(CC(=O)[C@@]4(O)C[C@H](O)[C@@H]5O[C@]5(CC=C(C)C)[C@@H]4O)c(C)c(CC(C)=O)c(O)c3c(=O)c12` [PESTALOFONE E] returned an IC50 of 0.9 µM and an MIC of 31.2 µM (≈ 19.5 µg/mL). For the same compound, the CC50 at 96 h in data set [1] is greater than 200 µM. This compound also showed an EC50 in data set [2] of 93.7 µM.
